Assay results: patent US9241921B2, “Photosensitizer composition for treating skin disorders” (priority 2011, dated 2016)

System: acne vulgaris
Experiment: Open-label prospective human study of topical ALA-PDT in acne vulgaris
Type: in vivo
Conditions: after treatment, amelioration of acne (FIG. 5)
Procedure: Photodynamic therapy with topical ALA composition as described in Example 1 was tested for the treatment of acne vulgaris, in an open-label prospective human study. 22 subjects with acne on their back were treated at 4 different sites with one of the following at each site: ALA plus red light (ALA-PDT), ALA alone, light alone, and untreated control. Half of the subjects were treated once; half were treated 4 times. 20% topical ALA of Example 1 was applied with 3 hr occlusion, and 150 J/cm^2 broad band light ([…]) was applied to the treated site. Sebum excretion rate and auto-fluorescence from follicular bacteria were measured before, and at 2, 3, 10, and 20 weeks after treatment. […]
Subjects were randomly divided into single treatment group or multiple treatment group. At baseline, clinical evaluations, natural bacterial porphyrin fluorescence photography, and sebum excretion rate (SER) evaluation were performed. […] In both groups, subjects returned one week after treatments for clinical evaluations and at weeks 2, 3, 10 and 20 for clinical, fluorescence, and SER evaluations.
Each subject's acne was visually assessed using an inflammatory acne score modified from that previously described (Burke et al., 1994). […] The numbers of comedo, inflammatory comedo, papules, pustules, nodules and cysts in each test area were recorded. […]

O=C(OOC(=O)c1ccccc1)c1ccccc1 [Benzoyl Peroxide]
time until therapeutic effect occurred: eight to twelve
